This is an account of results in patent US20210371413A1, “POLYCYCLIC AMIDES AS CYTOTOXIC AGENTS” (FEMTOGENIX LIMITED, priority 2018, published 2021).

The MIC is the lowest concentration that inhibits growth of the organism. Higher therefore signals a need for much substance.

What all share (format): cell-based
One assay concerns SW620. Put plainly: In vitro cell-killing, MTT assay, SW620. The note with it: Homo sapiens, SW-620, 72 h, read-out: In vitro cell-killing (IC50), Cytotoxicity (72 hours). Here is the method:
(§1) Tumor cell lines were maintained in RPMI1640 medium supplemented with 10% heat-inactivated fetal bovine serum, 2 mM L-glutamine and 1 mM sodium pyruvate. 1800 cells per well were seeded in a volume of 180 μl in a 96-well flat bottom polystyrene plate. The cells were allowed to adhere overnight at 37° C. in a CO2 incubator. Ligands were initially formulated in DMSO, and stocks stored at −80° C. They were then further formulated at lox concentration in RPMI1640 medium. 20 ul of diluted samples were added into each treatment well. On each plate, blank wells with no cells, and untreated wells containing cells, were included. Plates were then cultured at 37° C. in a CO2 incubator for 72 hrs. Cytotoxicity was evaluated using a tetrazolium salt-based assay, the MTT assay. After 72 hours, the supernatant was removed from each well and 200 μl of a sterile filtered 500 μg/ml MTT solution in water added to each well. […] The plate was then read on a plate reader at 540 nm, and percentage cell survival calculated as follows: ((mean absorbance treated wells at concentration x−mean absorbance blank wells)+(mean absorbance untreated wells at concentration x−mean absorbance blank wells))×100. Data were plotted as concentration in nM vs. % cell survival in Microsoft Excel, and IC50 values (concentration where cell survival is reduced by a half) were determined from the graph.

A further assay deals with E. coli K12. The assay is described as follows: MIC assay, E. coli K12. The note with it: overnight (16-20 hour) incubation. How it is done: The antimicrobial activity of a selection of compounds were evaluated in a Gram-negative, Gram-positive and multi-resistant bacteria using the standard minimum inhibitory concentration (MIC) assay for an overnight (16-20 hour) incubation period. Commercially marketed antibiotics (Table 3) were used as positive controls during the study.
Mueller-Hinton broth (MH Broth) (Sigma-Aldrich; Millipore, cat. no. 70192) and Mueller-Hinton agar (MHA) (Sigma-Aldrich; Millipore, cat. no. 70191) were prepared as per manufacturer's instructions and sterilized by autoclaving. Approximately 20 mL of MHA was poured onto 15×100 mm petri dishes and allowed to set. Agar plates were then stored in plastic bags in an inverted position at 4° C.
Bacterial strains were provided in the form of a glycerol stock, stored at −80° C. For the purpose of preparation of bacterial suspension, appropriate strains were removed from −80° C. storage onto dry ice and not allowed to freeze-thaw.
Stock solutions of 16, 45 and 73 were provided in DMSO at 1.28 mg/mL concentration. From this stock solution, working solutions of the desired concentration were prepared by diluting with MHB.
MIC assay methodology was adapted from previously published work.
Bacterial isolate to be tested was streaked onto a nutrient-rich MH agar plate and incubated overnight at 37° C. in order to obtain single colonies.
After overnight incubation, single colonies with the same morphological appearance were chosen from the agar plate. These were touched using a sterile loop and transferred into a tube containing 10 mL of a MH broth. They were then mixed using vortex mixer and incubated at 35-37° C. in a shaker at 200 r.p.m. overnight.
Determination of OD600 and cfu/mL count OD600 (the optical density of a sample measured at a wavelength of 600 nm) of the overnight culture was measured. Because of the loss of linearity at OD600 values […], it was necessary to dilute the sample until the OD600 value was below 1.0. For all tested bacteria, a dilution of 1:10 was appropriate (100 μL in 900 μL broth).
The overnight culture was then diluted 1:100 using sterile tubes and MH broth (dilution: 10^−2). Serial dilution was then performed six times until dilution of 10^−8 was reached. 100 μL of dilutions 10^−7 and 10^−8 were plated onto MH agar plates in triplicate using a sterile cell spreader and incubated overnight at 37° C.
After overnight incubation, colonies on plates were counted and cfu per mL calculated. The following formula was applied: […]
For the generation of overnight cultures to be used for preparation of the bacterial suspension for MIC tests, a single colony of bacteria was selected using a sterile loop and a sterile tube with MH broth was inoculated followed by overnight incubation at […] in a shaker set to 200 r.p.m.
After overnight incubation, the OD600 was measured and the overnight culture was diluted accordingly to obtain 1×10^8 cfu/mL.
Free payload dilutions were prepared as per Table 4.
96-well sterile microtiter plates were used for MIC assay. The plate was filled with the respective free payload or positive control antibiotic concentrations in triplicate. 100 μL of broth was pipetted in the sterility control well (SC, column 12) and 50 μL in the growth control well (GC, column 11).
1×10^8 cfu/mL bacterial suspension was diluted 1:100 and 50 μL added to each well apart from SC. […]
The 96-well plates were read using a SpectraMax plate reader at an absorbance of 600 nm. […]

In another assay the test system is REH (ALL). The assay is described as follows: In vitro cytotoxicity, MTT assay, REH. The note with it: 72 h, read-out: Cytotoxicity. How it is done: The in vitro cytotoxicity of a selection of compounds were evaluated in a panel of cell lines using the standard MTT assay for a 72 hour incubation period (Table 2). Free payloads produced cytotoxicities in the nanomolar range.
Tumor cell lines were maintained in RPMI1640 medium supplemented with 10% heat-inactivated fetal bovine serum, 2 mM L-glutamine and 1 mM sodium pyruvate. 1800 cells per well were seeded in a volume of 180 μl in a 96-well flat bottom polystyrene plate. The cells were allowed to adhere overnight at 37° C. in a CO2 incubator. Ligands were initially formulated in DMSO, and stocks stored at −80° C. They were then further formulated at lox concentration in RPMI1640 medium. 20 ul of diluted samples were added into each treatment well. On each plate, blank wells with no cells, and untreated wells containing cells, were included. Plates were then cultured at 37° C. in a CO2 incubator for 72 hrs. Cytotoxicity was evaluated using a tetrazolium salt-based assay, the MTT assay. After 72 hours, the supernatant was removed from each well and 200 μl of a sterile filtered 500 μg/ml MTT solution in water added to each well. The plates were then incubated at 37° C. in a CO2 incubator for 4 hrs. The supernatant was then removed and the formazan crystals formed solubilized by adding 150 μl of DMSO to each well. The plate was then read on a plate reader at 540 nm, and percentage cell survival calculated as follows: ((mean absorbance treated wells at concentration x−mean absorbance blank wells)+(mean absorbance untreated wells at concentration x−mean absorbance blank wells))×100. Data were plotted as concentration in nM vs. % cell survival in Microsoft Excel, and IC50 values (concentration where cell survival is reduced by a half) were determined from the graph.
A general note: Formazan colour is commonly taken as a measure of viable cells.

The next assay concerns LIM1215. Put plainly: In vitro cell-killing, MTT assay, LIM1215. The note with it: LIM1215, 72 h, read-out: In vitro cell-killing (IC50), Cytotoxicity (72 hours). How it is done: as §1
A further assay deals with SW48. Put plainly: In vitro cell-killing, MTT assay, SW48. The note with it: Homo sapiens, SW48, 72 h, read-out: In vitro cell-killing (IC50), Cytotoxicity (72 hours). Here is the method: as §1

≈ marks a conversion by molar mass, not a printed value.

Consider `COc1cc2c(cc1OCCCC(=O)Nc1cc(C(=O)Nc3ccc(-c4cc(C(=O)Nc5ccc(N)cc5)n(C)c4)cc3)n(C)c1)NC[C@@H]1CCCCN1C2=O` [Compound 16, (S)—N-(4-Aminophenyl)-4-(4-(4-(4-((2-methoxy-12-oxo-5,6,6a,7,8,9,10,12-octahydrobenzo[e]pyrido[1,2-a][1,4]diazepin-3-yl)oxy)butanamido)-1-methyl-1H-pyrrole-2-carboxamido)phenyl)-1-methyl-1H-pyrrole-2-carboxamide], for which the IC50 in the assay on SW620 turned out to be 79 nM; in the assay on REH (ALL), 146 nM; in the assay with LIM1215, 72 nM; with SW48 it was 77 nM. Further, the MIC in the assay on E. coli K12 (E. coli K12 (Gram-negative)) was 2 to 4 µg/mL; in the assay with E. coli K12 (Escherichia coli, K12, E. coli K12 (Gram-negative)), 2 µg/mL (≈ 2.64 µM).
